Source: article PMC3126777, “Selective anticancer activity of a hexapeptide with sequence homology to a non-kinase domain of Cyclin Dependent Kinase 4” (Molecular Cancer, 2011)
“Also recorded” adds a separate entry of the source.

Experiments:
G361 Melanoma = test: Response of cancer cell line to 200 μM THR53 (morphology, clonogenic assay); type: cell-based, human; conditions: G361, 200 μM; morphological changes at 5 days, clonogenic assays at 15 days
Method: (§1) The appearances of the disintegrating colonies in Figure 4B were not dissimilar to those of "starbursts" earlier reported in human in vitro cancer cell colonies undergoing spontaneous cell death. Table 5 lists 11 cell lines with complete response to 200 μM THR53. This relatively homogeneous therapeutic response to the same critical dose of THR53 markedly contrasts with the wide range of variability of in-vitro dose response of different cancer cell lines typically seen with conventional chemotherapeutic agents In addition to showing lack of toxicity towards normal human diploid fibroblasts, THR53 and related cyclic amphiphilic PRGPRP-containing peptides were not cytotoxic to normal diploid human keratinocytes growing as primary cultures (Figure 2B) or to MRC5-hTERT immortalised fibroblasts (Figures 4A and 5A).
(§2) All cell lines were from certified sources.

MGHU-1 Carcinoma Bladder = test: as above; type: cell-based, human; conditions: MGHU-1, 200 μM; morphological changes at 5 days, clonogenic assays at 15 days
Method: as §1, §2

[1] = test system: H460 human non-small cell lung cancer cells; test: Necrosis assay by Trypan Blue exclusion, H460; type: cell-based
Method: (§3) Necrosis Assay Cells were plated in triplicate in 96 well plates at concentrations of 500 cells per well (HT1299, MCF-7) or 1000 cells per well (H460, MRC5-hTERT) in the presence or absence of the relevant compound and assessed by Trypan Blue exclusion At 2,3,4 and 7 days after plating. To assay, cells were trypsinised off, stained with trypan blue in isotonic medium and live and dead cells separately counted visually by haemocytomter. Each data point is the mean of results from triplicate wells (Solid lines - Live cells, Broken lines - Dead Cells; Blue - Control, Red - THR53 200 μM).

[2] = test system: H1299 human non-small cell lung cancer cells; test: Necrosis assay by Trypan Blue exclusion, H1299; type: cell-based
Method: as §3

[3] = test system: MCF-7 human breast cancer cells; test: Necrosis assay by Trypan Blue exclusion, MCF-7; type: cell-based
Method: as §3

[4] = test system: MRC5-hTERT immortalised fibroblasts; test: Necrosis assay by Trypan Blue exclusion, MRC5-hTERT; type: cell-based
Method: as §3

[5] = test system: normal diploid human keratinocytes; test: Morphological cytotoxicity in primary keratinocyte cultures; type: cell-based; conditions: 200 μM THR53 (Figure 2B)
Method: as §1

[6] = test system: H460 human non-small cell lung cancer cells; test: H460 cell killing at the dose chosen for assay comparison; type: cell-based; conditions: 100 μM, by 96 hours
Method: In order to probe the mechanism of PRGPRP analogue induced cell death, three assays were conducted on H460 human non-small cell lung cancer cells over a period of 96 hours following exposure to THR53 (Figure 7A). Total cellular protein was measured by sulphorhodamine B [31], mitochondrial oxidation/reduction was measured by Alamar Blue assay and cellular ATP level was measured by luciferase activity. A dose of 100 μM THR53 at which 50% of H460 cells were killed by 96 hours was chosen for assay comparison. […] An assay for autophagy was thus carried out which utilises a proprietary reagent (Cyto-ID Green) that specifically labels autophagolysosomes, co-localising with LC3, a specific autophagosome marker. 25 μM Chloroquine was used as a positive control agent known to induce autophagy. […] However, no difference in the mean fluorescent intensity was seen following treatment with 100 μM THR53 at either 72 h or 96 h, when compared with control.

NCI-H460 cells [7] = test: Cellular ATP levels (CellTiter-Glo assay); type: cell-based, human; conditions: H460, 100 μM THR53, between 48 and 96 hours, CellTiter-Glo luminescence
Method: Cellular ATP levels (CellTiter-Glo assay) Cells were grown, seeded and compound-treated as for the alamar Blue assay. A volume of the CellTiter-Glo reagent equal to the volume of cell culture media was added to the cells. Plates were mixed for 2 min on an orbital shaker to induce cell lysis before the plate was incubated at room temperature for 10 min to stabilize the signal. The luminescent signal was measured and the media only background was subtracted.

NCI-H460 cells [8] = test: Total cellular protein (sulphorhodamine B assay); type: cell-based, human; conditions: H460, 100 μM THR53, up to 96 hours, sulphorhodamine B
Method: Control medium/alamar blue were removed and 200 μl PBS was added. […] Wells were rinsed with water and allowed to air dry. Cells were then stained in 0.4% SRB solution, before rinsing with 1% acetic acid and air drying. Incorporated dye was solubilised in 10 mM Tris and absorbance measured at 565 nm and 690 nm. Absorbance measurements at 690 nm were subtracted from the 565 nm readings to correct for multi-well plate absorbance.

NCI-H460 cells [9] = test: Mitochondrial function (alamar blue); type: cell-based, human; conditions: H460, 100 μM THR53, up to 96 hours, Alamar Blue
Method: Mitochondrial function (alamar blue) NCI-H460 cells were grown in Ham's F12 media supplemented with 10% FCS. Cells were harvested and added to 96-well plates at densities of 250-1000. Compounds were made up from stock solutions and added directly to cells at the concentrations indicated. Cells were grown with compound for the indicated time at 37°C, 5% CO2, in a humidified atmosphere. Alamar Blue 10% (v/v) was then added and incubated for a further 4 h, and fluorescent product detected using the BMG FLUOstar plate reader. The media only background was subtracted and the data analysed as appropriate.

H460 cells = test: Autophagy Assay (Cyto-ID Green, flow cytometry); type: cell-based, human; conditions: H460, 100 μM, 72 h and 96 h
Method: Autophagy Assay was performed as recommended by the manufacturers' instructions (Enzo ENZ-51031-[…]). Briefly, H460 cells were seeded into 6 well plates at 2.5 × 10^5 and 1 × 10^5 cells/well. Immediately after cell plating, chloroquine or […] were added at the concentrations indicated. Following compound treatment, cells were washed once in PBS and resuspended in x1 Cyto-ID Green autophagy detection reagent and incubated at room temperature for 30 min. Immediately prior to analysis, propidium iodide (PI) solution was added to the cell suspension at a final concentration of 2.5 μg/ml, to assess cell death. Analysis was carried out using FACSCalibur (BD Biosciences). Cyto-ID Green autophagy reagent was measured in the FL-1 channel (530/30 nm bandpass filters with excitation at 488 nm) and PI measured in the FL-3 channel (670 nm longpass filters with excitation at 488 nm).

[10] = test system: Cdk1 and Cdk4 expression in H460 human non-small cell lung cancer cells; test: Western blotting of Cdk1 and Cdk4 expression, H460; type: cell-based; conditions: H460, 200 μM, 24 hours, Western blot
Source text: This co-expression is unaffected by cytocidal doses of cisdiamminedichloroplatinum but can accompany spontaneous cancer cell death. Whether or not Cdk1/Cdk4 co-expression remained constant in cancer cells dying as a result of exposure to PRGPRP was thus examined by Western blotting.
as §2

Cyc-[FPPRGPRPVKLALKLALK] (head to tail) [THR53, cyclic amphiphilic analogue, Cyc-[…]]
response to THR53 (G361 Melanoma): total cell death | response to THR53 (MGHU-1 Carcinoma Bladder): total cell death | day at which necrotic cells are initially detectable ([1]; H460, 200 μM): 3 days | necrosis detected by trypan blue uptake ([1]; H460, 200 μM, 2, 3, 4 and 7 days after plating, triplicate wells): induces necrosis | day at which necrotic cells are initially detectable ([2]; H1299, 200 μM): 3 days | necrosis detected by trypan blue uptake ([2]; H1299, 200 μM, 2, 3, 4 and 7 days after plating, triplicate wells): induces necrosis | day at which necrotic cells are initially detectable ([3]; MCF-7, 200 μM): 3 days | necrosis detected by trypan blue uptake ([3]; MCF-7, 200 μM, 2, 3, 4 and 7 days after plating, triplicate wells): induces necrosis | cytotoxicity to MRC5-hTERT immortalised fibroblasts ([4]; 200 μM (Figures 4A and 5A)): not cytotoxic | necrosis / viability by trypan blue exclusion ([4]; MRC5-hTERT, 200 μM, 2, 3, 4 and 7 days after plating, triplicate wells): unaffected; also recorded: not in MRC5-h-TERT immortalised fibroblasts | cytotoxicity to normal diploid human keratinocytes [5]: not cytotoxic | H460 cells killed [6]: 50% | ATP levels (NCI-H460 cells [7]): progressive diminution | total cellular protein (NCI-H460 cells [8]): without change | mitochondrial oxidation/reduction (NCI-H460 cells [9]): without change | autophagy, Cyto-ID Green mean fluorescent intensity compared with control (H460 cells): no difference | Cdk4 expression [10]: complete disappearance
